In this experiment the target is T1, human Cav2.2 (Homo sapiens, UniProt Q00975).
T1 construct: IMR32 cells endogenously expressing human Cav2.2; endogenous in cells; host or cells: IMR32 cells (human neuroblastoma)
T1 sequence (Q00975 whole entry): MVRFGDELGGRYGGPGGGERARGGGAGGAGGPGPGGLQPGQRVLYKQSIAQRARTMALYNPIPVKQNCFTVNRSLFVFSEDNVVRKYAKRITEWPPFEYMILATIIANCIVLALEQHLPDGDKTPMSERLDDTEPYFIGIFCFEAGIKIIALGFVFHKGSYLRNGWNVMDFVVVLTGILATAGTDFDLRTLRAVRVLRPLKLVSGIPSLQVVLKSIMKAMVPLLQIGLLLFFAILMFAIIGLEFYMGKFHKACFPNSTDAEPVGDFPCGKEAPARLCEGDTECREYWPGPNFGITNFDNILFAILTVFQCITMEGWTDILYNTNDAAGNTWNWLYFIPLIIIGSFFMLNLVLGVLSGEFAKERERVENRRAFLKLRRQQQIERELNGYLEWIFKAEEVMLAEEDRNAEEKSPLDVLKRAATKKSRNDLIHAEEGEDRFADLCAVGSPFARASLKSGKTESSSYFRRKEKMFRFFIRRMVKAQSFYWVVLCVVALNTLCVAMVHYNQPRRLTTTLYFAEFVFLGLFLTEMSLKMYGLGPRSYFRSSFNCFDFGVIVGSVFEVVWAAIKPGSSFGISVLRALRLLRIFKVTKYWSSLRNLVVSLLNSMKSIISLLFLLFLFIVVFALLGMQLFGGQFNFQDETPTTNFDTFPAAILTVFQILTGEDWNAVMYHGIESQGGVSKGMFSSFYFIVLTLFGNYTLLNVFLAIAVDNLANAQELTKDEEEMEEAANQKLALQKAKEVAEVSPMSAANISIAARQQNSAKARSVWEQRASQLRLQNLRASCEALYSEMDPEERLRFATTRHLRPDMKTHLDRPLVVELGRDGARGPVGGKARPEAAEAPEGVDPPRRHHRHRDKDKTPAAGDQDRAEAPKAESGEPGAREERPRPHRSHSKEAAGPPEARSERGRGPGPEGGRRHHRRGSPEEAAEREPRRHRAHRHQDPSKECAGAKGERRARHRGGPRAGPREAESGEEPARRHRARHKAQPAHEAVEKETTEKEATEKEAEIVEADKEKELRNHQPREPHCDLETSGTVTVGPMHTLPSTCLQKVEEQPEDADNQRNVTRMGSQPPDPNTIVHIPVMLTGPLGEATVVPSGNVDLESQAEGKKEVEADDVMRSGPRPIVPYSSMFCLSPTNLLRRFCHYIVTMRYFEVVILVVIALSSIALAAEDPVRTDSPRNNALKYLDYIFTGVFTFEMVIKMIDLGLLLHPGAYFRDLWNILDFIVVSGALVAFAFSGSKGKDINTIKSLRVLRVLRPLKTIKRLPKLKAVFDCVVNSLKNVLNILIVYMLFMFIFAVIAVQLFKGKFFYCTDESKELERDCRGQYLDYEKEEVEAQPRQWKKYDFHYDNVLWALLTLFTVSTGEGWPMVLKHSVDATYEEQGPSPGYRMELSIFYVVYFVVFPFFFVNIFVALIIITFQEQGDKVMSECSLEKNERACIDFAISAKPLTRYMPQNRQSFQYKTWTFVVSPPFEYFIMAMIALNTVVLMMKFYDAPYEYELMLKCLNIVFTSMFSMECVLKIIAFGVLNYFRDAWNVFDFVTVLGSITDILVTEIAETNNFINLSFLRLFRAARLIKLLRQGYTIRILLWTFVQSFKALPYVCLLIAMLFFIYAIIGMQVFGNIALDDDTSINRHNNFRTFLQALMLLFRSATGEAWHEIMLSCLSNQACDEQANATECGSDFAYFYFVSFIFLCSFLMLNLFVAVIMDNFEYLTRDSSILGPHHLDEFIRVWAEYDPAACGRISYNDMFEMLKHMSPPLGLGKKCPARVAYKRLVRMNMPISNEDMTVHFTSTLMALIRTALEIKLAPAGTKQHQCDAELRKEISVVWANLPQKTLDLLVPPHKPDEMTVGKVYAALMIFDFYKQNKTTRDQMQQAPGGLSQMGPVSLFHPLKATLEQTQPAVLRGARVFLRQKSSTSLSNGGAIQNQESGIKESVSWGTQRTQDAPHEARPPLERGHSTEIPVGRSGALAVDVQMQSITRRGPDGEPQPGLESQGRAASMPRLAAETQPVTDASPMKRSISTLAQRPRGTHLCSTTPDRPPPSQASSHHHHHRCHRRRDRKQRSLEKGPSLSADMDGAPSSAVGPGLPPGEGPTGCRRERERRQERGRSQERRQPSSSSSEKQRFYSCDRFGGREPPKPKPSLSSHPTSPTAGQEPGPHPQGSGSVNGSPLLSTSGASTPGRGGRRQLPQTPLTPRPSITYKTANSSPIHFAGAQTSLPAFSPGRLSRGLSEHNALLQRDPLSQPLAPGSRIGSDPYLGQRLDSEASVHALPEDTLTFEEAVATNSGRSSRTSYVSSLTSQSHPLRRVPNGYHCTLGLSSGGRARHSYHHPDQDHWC
T1 sequence (P54289 25-956 partner limits assumed): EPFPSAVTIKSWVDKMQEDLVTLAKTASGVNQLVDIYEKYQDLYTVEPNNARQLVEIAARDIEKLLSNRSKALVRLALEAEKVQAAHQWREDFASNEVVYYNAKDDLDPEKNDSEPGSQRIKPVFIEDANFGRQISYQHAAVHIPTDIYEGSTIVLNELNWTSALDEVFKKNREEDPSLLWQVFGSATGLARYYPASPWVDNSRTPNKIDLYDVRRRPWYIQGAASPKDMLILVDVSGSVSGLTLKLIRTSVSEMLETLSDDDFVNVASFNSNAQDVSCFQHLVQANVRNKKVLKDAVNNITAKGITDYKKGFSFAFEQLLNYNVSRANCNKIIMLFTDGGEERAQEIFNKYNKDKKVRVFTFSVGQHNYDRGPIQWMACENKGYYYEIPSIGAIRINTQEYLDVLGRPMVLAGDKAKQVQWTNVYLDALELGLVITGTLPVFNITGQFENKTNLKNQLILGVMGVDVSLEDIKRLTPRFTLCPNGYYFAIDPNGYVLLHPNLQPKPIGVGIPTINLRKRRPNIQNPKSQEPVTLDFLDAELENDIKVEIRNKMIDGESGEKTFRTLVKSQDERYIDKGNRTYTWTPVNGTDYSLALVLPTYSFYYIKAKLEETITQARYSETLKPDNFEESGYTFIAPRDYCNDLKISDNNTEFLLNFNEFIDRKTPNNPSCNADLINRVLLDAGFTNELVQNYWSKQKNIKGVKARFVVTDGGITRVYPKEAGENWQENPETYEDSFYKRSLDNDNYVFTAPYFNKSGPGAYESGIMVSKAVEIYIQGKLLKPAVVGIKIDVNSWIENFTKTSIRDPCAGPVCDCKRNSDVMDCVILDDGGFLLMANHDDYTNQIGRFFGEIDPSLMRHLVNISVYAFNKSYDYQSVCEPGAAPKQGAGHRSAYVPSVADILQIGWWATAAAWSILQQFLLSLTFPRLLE
T1 sequence (P54289 957-1103 partner limits assumed): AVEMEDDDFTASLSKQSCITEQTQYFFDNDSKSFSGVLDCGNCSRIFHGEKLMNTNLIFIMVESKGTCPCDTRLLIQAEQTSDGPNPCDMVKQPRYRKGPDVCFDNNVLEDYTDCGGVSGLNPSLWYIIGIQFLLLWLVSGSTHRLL
T1 sequence (P54284 whole entry partner): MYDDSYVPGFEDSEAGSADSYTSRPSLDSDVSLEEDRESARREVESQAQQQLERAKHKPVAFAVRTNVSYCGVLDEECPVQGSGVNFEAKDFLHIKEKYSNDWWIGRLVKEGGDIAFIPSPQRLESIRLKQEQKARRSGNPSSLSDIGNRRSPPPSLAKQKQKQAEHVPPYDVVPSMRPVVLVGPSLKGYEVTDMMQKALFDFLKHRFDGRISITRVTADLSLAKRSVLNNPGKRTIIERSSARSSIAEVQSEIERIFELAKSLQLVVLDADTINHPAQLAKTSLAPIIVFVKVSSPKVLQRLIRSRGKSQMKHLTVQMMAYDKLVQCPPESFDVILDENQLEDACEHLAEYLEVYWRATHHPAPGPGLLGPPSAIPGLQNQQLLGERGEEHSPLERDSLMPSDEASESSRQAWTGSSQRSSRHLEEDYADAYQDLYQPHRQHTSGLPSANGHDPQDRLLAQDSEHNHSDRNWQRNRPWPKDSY
The experiment in a line: Assessment of calcium channel activity using FLIPR (Ca2+ influx in IMR32 cells). It is filed as cell-based. To be noted: IMR32 cells endogenously expressing human Cav2.2, Calcium 4 dye, 60 minute pre-incubation, 2 μM nifedipine, depolarized with 80 mM KCl, 5 mM CaCl2. Here is the method: (i) In Vitro Methods—Assessment of Calcium Channel Activity Using FLIPR:
IMR32 cells endogenously expressing human Cav2.2 were assayed for Ca^2+ influx using a no-wash calcium indicator dye (Calcium 4 dye: Molecular Probes) and FLIPR technology (Lubin, M. L.; Reitz, T. L.; Todd, M. J.; Flores, C. M.; Qin, N.; Xin, H. Assay and Drug Development Technologies 2006, 4(6), 689-694.). The IMR32 cells were maintained in MEM media containing 10% (v/v) FBS, 1% (v/v) antibiotic/antimitotic, 1% (v/v) sodium pyruvate and 1% (v/v) MEM NEAA. Following dissociation in 0.05% (v/v) trypsin/EDTA, cells were seeded into black 1×96-well plates (Corning Cellbind) at a density of 1−1.2×10^5 cells/well and incubated in the maintenance media above for 48 hours at 37° C. Immediately prior to performing the assay the media was removed and cells were loaded for 1.5 hours with 1×Calcium 4 dye prepared in HBSS (137 mM NaCl, 5.4 mM KCl, 0.25 mM Na2HPO4, 0.44 mM KH2PO4, 1.3 mM CaCl2, 1 mM MgSO4, 4.2 mM NaHCO3) containing HEPES pH 7.4 at room temperature. After dye loading and a subsequent 60 minute pre-incubation with compounds (full log dilutions from 10 μM to 0.1 nM) in the presence of 1.3 mM CaCl2 and 2 μM nifedipine to block endogenous L-type channels, the external Ca^2+ concentration was increased to 5 mM CaCl2 and the cells concomitantly depolarized with 80 mM KCl to assay channel activity. To determine the IC50 values, the percent inhibition of the compound at each concentration was determined relative to the activity in the absence of inhibitor, and data was fitted using non-linear regression sigmoidal dose response curve analysis with GraphPad Prism®.
For orientation: IC50 means the point on the concentration scale where inhibition reaches its midpoint. In the case of `O[C@@H]1CC[C@@H]2CN(c3cccc(C(F)(F)F)n3)C[C@@H]21` [Example 30, (3aR,4R,6aS)-2-[6-(trifluoromethyl)pyridin-2-yl]octahydrocyclopenta[c]pyrrol-4-ol], the IC50 came to 15.8 µM.

Consider `CC(c1cccc(F)c1)[C@@]1(O)CC[C@@H]2CN(c3cccc(C(F)(F)F)n3)C[C@@H]21` (stereo partly drawn) [Example 38, (3aR,4S,6aS)-4-[1-(3-fluorophenyl)ethyl]-2-[6-(trifluoromethyl)pyridin-2-yl]octahydrocyclopenta[c]pyrrol-4-ol], for which the IC50 came out at 6.1 µM.

As for `O[C@H]1[C@H]2CN(c3cccc(C(F)(F)F)n3)C[C@H]2C[C@H]1n1ccnc1` [Example 68, (3aR,4S,5R,6aS)-5-(1H-imidazol-1-yl)-2-[6-(trifluoromethyl)pyridin-2-yl]octahydrocyclopenta[c]pyrrol-4-ol], the IC50 came to 10.8 µM.
